Reference: ChEMBL document CHEMBL4800729 (2021)

Legend:
[1] = target: T1, 5-hydroxytryptamine receptor 1B (Homo sapiens, UniProt P28222); assay: GPCRScan assay: inhibition of 5-HT1B; design: radioligand conc. used [nm] 0.6 – 1.5, parental cells stable HEK
[2] = target: 5-hydroxytryptamine receptor 6 (Homo sapiens, UniProt P50406); assay: GPCRScan assay: inhibition of 5-HT6; design: radioligand conc. used [nm] 2.0 – 4.0, parental cells stable HEK
D(1A) dopamine receptor = D(1A) dopamine receptor (Homo sapiens, UniProt P21728); assay: GPCRScan assay: inhibition of D1; design: radioligand conc. used [nm] 0.6 – 1.3, parental cells HEKT
[3] = target: T2, 5-hydroxytryptamine receptor 1A (Homo sapiens) (UniProt P08908); conditions: Compound concentration 10.0 uM
T2 sequence (whole entry): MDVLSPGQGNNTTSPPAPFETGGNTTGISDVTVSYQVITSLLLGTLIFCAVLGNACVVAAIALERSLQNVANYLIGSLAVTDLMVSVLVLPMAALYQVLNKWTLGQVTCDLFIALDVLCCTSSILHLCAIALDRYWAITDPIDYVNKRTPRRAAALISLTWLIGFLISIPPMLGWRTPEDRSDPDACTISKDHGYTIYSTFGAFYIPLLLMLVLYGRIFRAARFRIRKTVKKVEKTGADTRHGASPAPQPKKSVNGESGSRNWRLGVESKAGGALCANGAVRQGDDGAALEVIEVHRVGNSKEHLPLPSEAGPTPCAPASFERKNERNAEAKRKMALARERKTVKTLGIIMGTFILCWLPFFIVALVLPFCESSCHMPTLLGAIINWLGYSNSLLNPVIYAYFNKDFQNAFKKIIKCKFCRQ

[4] = target: T1, 5-hydroxytryptamine receptor 1B; conditions: Compound concentration 10.0 uM
[5] = target: 5-hydroxytryptamine receptor 1D (Homo sapiens) (UniProt P28221); conditions: Compound concentration 10.0 uM
[6] = target: 5-hydroxytryptamine receptor 2A (Homo sapiens) (UniProt P28223); conditions: Compound concentration 10.0 uM
[7] = target: 5-hydroxytryptamine receptor 3A (Homo sapiens) (UniProt P46098); conditions: Compound concentration 10.0 uM
5-hydroxytryptamine receptor 3A (Homo sapiens), sequence (P46098 whole entry): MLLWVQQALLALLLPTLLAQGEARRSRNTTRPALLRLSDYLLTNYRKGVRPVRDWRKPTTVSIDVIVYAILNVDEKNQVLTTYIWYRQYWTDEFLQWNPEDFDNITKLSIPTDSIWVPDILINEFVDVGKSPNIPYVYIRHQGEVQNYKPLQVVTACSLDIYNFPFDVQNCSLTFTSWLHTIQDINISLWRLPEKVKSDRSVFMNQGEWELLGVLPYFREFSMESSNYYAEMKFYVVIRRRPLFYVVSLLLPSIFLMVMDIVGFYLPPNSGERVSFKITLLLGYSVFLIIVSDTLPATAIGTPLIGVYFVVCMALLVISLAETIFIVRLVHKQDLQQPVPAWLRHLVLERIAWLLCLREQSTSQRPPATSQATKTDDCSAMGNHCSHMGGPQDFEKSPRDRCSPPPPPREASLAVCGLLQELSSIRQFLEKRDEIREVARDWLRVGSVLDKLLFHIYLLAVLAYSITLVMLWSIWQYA

[8] = target: 5-hydroxytryptamine receptor 5A (Homo sapiens) (UniProt P47898); conditions: Compound concentration 10.0 uM
5-hydroxytryptamine receptor 5A (Homo sapiens), sequence (P47898 whole entry): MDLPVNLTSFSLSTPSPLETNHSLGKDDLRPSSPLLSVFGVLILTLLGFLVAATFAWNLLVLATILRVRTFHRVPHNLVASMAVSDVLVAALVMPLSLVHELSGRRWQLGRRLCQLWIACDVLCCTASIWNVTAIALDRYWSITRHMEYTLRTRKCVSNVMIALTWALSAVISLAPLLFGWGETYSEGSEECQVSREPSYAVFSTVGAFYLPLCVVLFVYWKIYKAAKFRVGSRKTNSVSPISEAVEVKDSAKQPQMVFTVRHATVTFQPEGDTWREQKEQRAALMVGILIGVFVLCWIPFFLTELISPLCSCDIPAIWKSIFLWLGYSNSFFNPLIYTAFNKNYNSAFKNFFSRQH

[9] = target: D(2) dopamine receptor (Homo sapiens) (UniProt P14416); conditions: Compound concentration 10.0 uM
D(2) dopamine receptor (Homo sapiens), sequence (P14416 whole entry): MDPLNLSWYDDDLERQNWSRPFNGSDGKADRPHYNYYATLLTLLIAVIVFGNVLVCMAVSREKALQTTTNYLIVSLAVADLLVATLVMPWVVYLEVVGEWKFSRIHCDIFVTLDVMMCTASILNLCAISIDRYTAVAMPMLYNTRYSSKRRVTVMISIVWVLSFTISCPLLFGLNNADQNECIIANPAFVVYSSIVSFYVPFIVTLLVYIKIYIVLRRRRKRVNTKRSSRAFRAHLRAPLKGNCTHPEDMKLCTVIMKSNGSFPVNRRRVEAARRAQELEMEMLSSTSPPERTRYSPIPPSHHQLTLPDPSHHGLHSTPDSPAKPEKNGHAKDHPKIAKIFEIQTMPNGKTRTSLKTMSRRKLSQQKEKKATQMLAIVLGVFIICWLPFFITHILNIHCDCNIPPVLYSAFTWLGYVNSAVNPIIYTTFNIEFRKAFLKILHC

[10] = target: D(3) dopamine receptor (Homo sapiens) (UniProt P35462); conditions: Compound concentration 10.0 uM
[11] = target: D(4) dopamine receptor (Homo sapiens) (UniProt P21917); conditions: Compound concentration 10.0 uM
[12] = target: Sodium-dependent noradrenaline transporter (Homo sapiens) (UniProt P23975); conditions: Compound concentration 10.0 uM
[13] = target: Sodium-dependent dopamine transporter (Homo sapiens) (UniProt Q01959); conditions: Compound concentration 10.0 uM
[14] = target: Mu-type opioid receptor (Homo sapiens) (UniProt P35372); conditions: Compound concentration 10.0 uM
Mu-type opioid receptor (Homo sapiens), sequence (P35372 whole entry): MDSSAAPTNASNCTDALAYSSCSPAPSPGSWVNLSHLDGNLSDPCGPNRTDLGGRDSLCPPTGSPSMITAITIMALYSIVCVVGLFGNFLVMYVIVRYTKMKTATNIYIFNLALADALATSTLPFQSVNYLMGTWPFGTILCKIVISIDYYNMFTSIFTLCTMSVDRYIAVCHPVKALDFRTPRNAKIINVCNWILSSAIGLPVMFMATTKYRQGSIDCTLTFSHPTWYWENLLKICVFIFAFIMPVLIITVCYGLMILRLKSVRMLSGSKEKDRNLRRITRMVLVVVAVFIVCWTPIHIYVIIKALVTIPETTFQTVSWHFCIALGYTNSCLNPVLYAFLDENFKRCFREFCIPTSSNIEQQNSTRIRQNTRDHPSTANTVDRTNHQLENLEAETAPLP

[15] = target: Delta-type opioid receptor (Homo sapiens) (UniProt P41143); conditions: Compound concentration 10.0 uM
[16] = target: Kappa-type opioid receptor (Homo sapiens) (UniProt P41145); conditions: Compound concentration 10.0 uM
Kappa-type opioid receptor (Homo sapiens), sequence (P41145 whole entry): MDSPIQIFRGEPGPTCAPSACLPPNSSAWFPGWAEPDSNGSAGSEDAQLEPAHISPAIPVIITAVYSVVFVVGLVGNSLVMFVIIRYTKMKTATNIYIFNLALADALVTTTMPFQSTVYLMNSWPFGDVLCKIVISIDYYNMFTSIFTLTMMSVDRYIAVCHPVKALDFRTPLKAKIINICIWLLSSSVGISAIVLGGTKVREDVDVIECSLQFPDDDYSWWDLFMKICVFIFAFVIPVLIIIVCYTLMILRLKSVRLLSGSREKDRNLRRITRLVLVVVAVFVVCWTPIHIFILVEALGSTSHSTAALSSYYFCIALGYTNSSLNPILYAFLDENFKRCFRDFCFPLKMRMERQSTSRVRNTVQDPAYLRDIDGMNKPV

[17] = target: Histamine H1 receptor (Homo sapiens) (UniProt P35367); conditions: Compound concentration 10.0 uM
Histamine H1 receptor (Homo sapiens), sequence (P35367 whole entry): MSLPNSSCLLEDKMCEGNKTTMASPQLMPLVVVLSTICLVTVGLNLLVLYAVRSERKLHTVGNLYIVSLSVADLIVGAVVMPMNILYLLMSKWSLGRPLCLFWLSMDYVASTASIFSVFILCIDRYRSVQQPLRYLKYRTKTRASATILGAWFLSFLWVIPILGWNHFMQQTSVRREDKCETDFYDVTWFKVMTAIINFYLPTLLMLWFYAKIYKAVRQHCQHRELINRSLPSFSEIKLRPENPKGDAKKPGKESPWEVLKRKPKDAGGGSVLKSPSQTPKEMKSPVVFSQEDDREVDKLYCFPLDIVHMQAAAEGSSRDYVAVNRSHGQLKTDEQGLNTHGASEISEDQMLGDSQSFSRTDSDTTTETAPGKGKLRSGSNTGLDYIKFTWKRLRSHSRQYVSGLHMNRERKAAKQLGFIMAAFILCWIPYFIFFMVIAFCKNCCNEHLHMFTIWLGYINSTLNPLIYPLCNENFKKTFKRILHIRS

[18] = target: Histamine H2 receptor (Homo sapiens) (UniProt P25021); conditions: Compound concentration 10.0 uM
Histamine H2 receptor (Homo sapiens), sequence (P25021 whole entry): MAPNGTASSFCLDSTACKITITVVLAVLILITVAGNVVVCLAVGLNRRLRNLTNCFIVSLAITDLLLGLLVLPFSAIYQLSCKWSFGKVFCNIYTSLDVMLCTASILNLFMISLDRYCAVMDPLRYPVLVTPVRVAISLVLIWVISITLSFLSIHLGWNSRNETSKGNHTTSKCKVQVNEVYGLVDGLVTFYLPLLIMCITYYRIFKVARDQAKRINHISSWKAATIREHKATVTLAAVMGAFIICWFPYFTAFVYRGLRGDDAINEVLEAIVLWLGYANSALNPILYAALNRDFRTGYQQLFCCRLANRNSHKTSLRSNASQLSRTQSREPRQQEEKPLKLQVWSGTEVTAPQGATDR

[19] = target: Histamine H3 receptor (Homo sapiens) (UniProt Q9Y5N1); conditions: Compound concentration 10.0 uM
[20] = target: Histamine H4 receptor (Homo sapiens) (UniProt Q9H3N8); conditions: Compound concentration 10.0 uM
[21] = target: Alpha-2A adrenergic receptor (Homo sapiens) (UniProt P08913); conditions: Compound concentration 10.0 uM
[22] = target: T3, Alpha-2B adrenergic receptor (Homo sapiens) (UniProt P18089); conditions: Compound concentration 10.0 uM
T3 sequence (whole entry): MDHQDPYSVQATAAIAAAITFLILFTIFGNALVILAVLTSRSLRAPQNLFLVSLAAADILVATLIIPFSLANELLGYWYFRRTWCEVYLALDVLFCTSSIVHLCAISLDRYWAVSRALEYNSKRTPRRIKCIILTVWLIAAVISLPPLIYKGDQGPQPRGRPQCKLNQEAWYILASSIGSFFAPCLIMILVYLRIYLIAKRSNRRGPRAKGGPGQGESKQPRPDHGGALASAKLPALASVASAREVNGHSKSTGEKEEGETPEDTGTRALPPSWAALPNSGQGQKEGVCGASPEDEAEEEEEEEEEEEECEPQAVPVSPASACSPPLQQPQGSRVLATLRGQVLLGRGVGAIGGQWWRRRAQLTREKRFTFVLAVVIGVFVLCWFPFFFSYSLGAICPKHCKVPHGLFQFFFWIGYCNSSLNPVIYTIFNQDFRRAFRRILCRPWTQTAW

[23] = target: T4, Alpha-2C adrenergic receptor (Homo sapiens) (UniProt P18825); conditions: Compound concentration 10.0 uM
T4 sequence (whole entry): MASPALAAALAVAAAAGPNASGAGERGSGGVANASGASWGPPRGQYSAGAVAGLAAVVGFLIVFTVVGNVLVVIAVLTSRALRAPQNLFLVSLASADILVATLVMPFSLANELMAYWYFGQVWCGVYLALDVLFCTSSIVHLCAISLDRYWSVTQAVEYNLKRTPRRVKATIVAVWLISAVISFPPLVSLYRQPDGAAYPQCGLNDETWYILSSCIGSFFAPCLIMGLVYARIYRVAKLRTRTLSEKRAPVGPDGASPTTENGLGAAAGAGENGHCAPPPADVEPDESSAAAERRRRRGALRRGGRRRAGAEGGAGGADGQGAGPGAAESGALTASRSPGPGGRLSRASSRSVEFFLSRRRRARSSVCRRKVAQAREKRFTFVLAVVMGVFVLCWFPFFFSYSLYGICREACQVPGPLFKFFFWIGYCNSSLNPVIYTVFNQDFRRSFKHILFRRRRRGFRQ

[24] = target: Beta-1 adrenergic receptor (Homo sapiens) (UniProt P08588); conditions: Compound concentration 10.0 uM
Beta-1 adrenergic receptor (Homo sapiens), sequence (P08588 whole entry, looked up): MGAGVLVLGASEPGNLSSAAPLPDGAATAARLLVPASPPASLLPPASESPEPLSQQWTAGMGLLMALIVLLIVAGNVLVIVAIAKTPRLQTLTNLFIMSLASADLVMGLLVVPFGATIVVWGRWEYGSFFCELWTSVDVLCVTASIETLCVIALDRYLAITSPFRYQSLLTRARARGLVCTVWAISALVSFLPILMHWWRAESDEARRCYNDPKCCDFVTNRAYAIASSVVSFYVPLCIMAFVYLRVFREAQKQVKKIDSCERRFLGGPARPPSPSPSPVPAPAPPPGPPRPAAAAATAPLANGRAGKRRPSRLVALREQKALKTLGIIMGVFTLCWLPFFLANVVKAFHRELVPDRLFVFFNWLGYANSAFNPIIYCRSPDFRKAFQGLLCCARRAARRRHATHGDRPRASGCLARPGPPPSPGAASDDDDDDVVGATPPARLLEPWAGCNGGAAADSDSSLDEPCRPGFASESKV

[25] = target: T5, Muscarinic acetylcholine receptor M1 (Homo sapiens) (UniProt P11229); conditions: Compound concentration 10.0 uM
T5 sequence (whole entry): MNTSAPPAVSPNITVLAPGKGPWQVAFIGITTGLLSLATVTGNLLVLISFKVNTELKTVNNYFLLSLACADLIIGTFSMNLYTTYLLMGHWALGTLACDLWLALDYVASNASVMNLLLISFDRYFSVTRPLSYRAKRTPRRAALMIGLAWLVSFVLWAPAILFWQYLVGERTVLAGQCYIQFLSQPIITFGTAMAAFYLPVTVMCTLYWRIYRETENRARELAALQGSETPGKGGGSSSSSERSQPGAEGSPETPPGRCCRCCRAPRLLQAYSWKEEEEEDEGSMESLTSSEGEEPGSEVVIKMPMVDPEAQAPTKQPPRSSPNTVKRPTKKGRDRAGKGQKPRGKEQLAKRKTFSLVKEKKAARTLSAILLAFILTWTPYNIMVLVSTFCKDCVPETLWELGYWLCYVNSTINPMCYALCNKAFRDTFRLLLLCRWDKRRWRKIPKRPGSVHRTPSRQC

[26] = target: Muscarinic acetylcholine receptor M4 (Homo sapiens) (UniProt P08173); conditions: Compound concentration 10.0 uM
Muscarinic acetylcholine receptor M4 (Homo sapiens), sequence (P08173 whole entry): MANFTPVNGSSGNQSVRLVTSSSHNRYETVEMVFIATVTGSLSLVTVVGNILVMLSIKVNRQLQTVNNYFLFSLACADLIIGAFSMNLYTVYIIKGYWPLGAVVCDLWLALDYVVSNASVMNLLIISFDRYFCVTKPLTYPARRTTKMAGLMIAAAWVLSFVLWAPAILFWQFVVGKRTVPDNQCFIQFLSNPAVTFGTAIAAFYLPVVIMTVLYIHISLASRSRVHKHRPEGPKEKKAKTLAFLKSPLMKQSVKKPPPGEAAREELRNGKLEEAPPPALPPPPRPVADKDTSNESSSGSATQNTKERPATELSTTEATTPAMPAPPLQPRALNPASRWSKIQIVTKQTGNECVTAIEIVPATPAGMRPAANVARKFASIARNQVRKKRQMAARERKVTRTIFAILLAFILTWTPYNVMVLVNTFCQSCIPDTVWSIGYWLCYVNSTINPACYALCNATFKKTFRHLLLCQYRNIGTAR

[27] = target: Beta-3 adrenergic receptor (Homo sapiens) (UniProt P13945); conditions: Compound concentration 10.0 uM
Rattus norvegicus = organism: Rattus norvegicus; conditions: Compound concentration 10.0 uM
[28] = target: Sigma intracellular receptor 2 (Homo sapiens) (UniProt Q5BJF2); conditions: Compound concentration 10.0 uM
Sigma intracellular receptor 2 (Homo sapiens), sequence (Q5BJF2 whole entry): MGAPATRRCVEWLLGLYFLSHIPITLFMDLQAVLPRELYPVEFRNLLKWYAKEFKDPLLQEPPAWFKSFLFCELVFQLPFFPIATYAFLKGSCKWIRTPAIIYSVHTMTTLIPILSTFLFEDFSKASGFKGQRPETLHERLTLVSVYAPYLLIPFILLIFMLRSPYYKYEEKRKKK

[29] = target: Sigma non-opioid intracellular receptor 1 (Homo sapiens) (UniProt Q99720); conditions: Compound concentration 10.0 uM

T1 sequence (P28222 whole entry): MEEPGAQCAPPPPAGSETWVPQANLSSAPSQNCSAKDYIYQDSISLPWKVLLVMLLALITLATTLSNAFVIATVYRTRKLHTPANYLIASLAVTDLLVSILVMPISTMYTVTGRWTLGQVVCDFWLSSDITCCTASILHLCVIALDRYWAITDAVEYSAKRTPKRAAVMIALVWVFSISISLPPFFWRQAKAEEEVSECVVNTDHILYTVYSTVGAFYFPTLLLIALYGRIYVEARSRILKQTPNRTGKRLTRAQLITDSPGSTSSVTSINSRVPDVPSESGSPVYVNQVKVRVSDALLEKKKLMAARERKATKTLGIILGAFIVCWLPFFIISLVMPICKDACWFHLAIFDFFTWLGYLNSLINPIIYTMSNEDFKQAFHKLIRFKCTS
5-hydroxytryptamine receptor 6, sequence (P50406 whole entry): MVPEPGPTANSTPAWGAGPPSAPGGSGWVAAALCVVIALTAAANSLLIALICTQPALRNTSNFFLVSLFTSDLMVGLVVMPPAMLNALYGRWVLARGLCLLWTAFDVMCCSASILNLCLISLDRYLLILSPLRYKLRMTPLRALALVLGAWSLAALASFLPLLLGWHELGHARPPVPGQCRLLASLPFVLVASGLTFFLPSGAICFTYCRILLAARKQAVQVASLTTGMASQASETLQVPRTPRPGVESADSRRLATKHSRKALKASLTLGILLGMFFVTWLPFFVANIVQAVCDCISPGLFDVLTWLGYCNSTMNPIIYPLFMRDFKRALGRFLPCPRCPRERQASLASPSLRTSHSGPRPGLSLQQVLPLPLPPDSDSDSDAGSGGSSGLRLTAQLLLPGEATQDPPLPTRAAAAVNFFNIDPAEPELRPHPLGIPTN

Q: Which results are given for `CC[C@H](Nc1c(C#N)c(-c2ccc(-c3cccc(C)c3F)cc2)nc2cnccc12)C(=O)O` [BAY-0361]?
A: Ki [1]: > 10 µM; pKi [1]: < 5; Ki [2]: > 10 µM; pKi [2]: < 5; Ki (D(1A) dopamine receptor): 9.48 µM; inhibition [3]: 8.67%; inhibition [4]: 51%; inhibition [5]: 46.6%; inhibition [6]: -9.27%; inhibition [7]: 2.07%; inhibition [8]: -9.19%; inhibition [9]: -5.16%; inhibition [10]: 7.14%; inhibition [11]: -8.01%; inhibition [12]: -6.08%; inhibition [13]: 38.8%; inhibition [14]: -9.08%; inhibition [15]: 3.55%; inhibition [16]: 4.36%; inhibition [17]: -8.53%; inhibition [18]: 9.78%; inhibition [19]: -8.98%; inhibition [20]: 18.7%; inhibition [21]: 8.09%; inhibition [22]: -7.7%; inhibition [23]: -6.46%; inhibition [24]: 5.52%; inhibition [25]: -8.53%; inhibition [26]: -0.83%; inhibition [27]: 21.6%; inhibition (Rattus norvegicus): 41.8%; inhibition [28]: 11.6%; inhibition [29]: 23.1%
